Values of other authors, collected in EP0147926B1, “Oral anti-cancer compositions” (priority 1983, dated 1985).

Legend:
[1] = test system: ADJ/PC6A plasmacytoma; settings: administered orally
[2] = test system: P388 lymphocytic leukaemia; settings: administered orally

For `N.N.O=C([O-])C1(C(=O)[O-])CCC1.[Pt+2]` [cis-[diammine-(1,1-cyclobutanedicarboxylato)platinum(II)l], the activity [1] is given as “insignificant activity” and the activity [2] is given as “insignificant activity”.
